Experimental data from ChEMBL document CHEMBL4130358, “Chemoselective synthesis and biological evaluation of arylated 2-(Trifluoromethyl) quinolines as nucleotide pyrophosphatase (NPPs) inhibitors” (Eur J Med Chem, 2017).

Experiments:
[1] = biological target: T1, Ectonucleotide pyrophosphatase/phosphodiesterase family member 3 (Homo sapiens, UniProt O14638); assay: Inhibition of human full length NPP3 expressed in African green monkey COS7 cell membrane fraction using p-nitrophenyl-5'-thymidine monophosphate as substrate preincubated for 10 mins followed by substrate addition measured after 30 mins
T1 sequence (O14638 whole entry): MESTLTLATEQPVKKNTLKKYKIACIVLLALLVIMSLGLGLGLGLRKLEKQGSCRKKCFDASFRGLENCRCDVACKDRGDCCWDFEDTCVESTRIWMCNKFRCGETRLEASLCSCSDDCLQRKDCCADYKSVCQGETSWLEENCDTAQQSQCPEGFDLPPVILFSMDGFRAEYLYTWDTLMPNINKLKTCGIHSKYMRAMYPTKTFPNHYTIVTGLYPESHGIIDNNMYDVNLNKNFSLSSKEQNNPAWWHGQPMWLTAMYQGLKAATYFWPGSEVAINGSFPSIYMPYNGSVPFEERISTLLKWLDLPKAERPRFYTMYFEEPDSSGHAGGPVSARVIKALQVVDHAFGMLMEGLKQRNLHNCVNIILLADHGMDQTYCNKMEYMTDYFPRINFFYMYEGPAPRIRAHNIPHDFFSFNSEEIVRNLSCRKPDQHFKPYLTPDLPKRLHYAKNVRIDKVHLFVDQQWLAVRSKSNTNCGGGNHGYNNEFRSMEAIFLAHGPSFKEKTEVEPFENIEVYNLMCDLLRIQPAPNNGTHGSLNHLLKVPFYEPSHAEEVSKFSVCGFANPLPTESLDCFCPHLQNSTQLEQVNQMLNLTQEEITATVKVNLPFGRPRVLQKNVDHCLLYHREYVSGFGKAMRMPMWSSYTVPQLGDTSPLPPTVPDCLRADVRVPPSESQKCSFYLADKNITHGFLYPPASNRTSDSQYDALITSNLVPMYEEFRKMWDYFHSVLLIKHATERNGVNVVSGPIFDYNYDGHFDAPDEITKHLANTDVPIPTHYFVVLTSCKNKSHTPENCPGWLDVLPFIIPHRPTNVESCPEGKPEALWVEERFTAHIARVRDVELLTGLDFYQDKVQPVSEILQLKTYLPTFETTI

[2] = biological target: T2, Ectonucleotide pyrophosphatase/phosphodiesterase family member 1 (Homo sapiens, UniProt P22413); assay: Inhibition of human full length NPP1 expressed in African green monkey COS7 cell membrane fraction using p-nitrophenyl-5'-thymidine monophosphate as substrate preincubated for 10 mins followed by substrate addition measured after 30 mins
T2 sequence (P22413 whole entry): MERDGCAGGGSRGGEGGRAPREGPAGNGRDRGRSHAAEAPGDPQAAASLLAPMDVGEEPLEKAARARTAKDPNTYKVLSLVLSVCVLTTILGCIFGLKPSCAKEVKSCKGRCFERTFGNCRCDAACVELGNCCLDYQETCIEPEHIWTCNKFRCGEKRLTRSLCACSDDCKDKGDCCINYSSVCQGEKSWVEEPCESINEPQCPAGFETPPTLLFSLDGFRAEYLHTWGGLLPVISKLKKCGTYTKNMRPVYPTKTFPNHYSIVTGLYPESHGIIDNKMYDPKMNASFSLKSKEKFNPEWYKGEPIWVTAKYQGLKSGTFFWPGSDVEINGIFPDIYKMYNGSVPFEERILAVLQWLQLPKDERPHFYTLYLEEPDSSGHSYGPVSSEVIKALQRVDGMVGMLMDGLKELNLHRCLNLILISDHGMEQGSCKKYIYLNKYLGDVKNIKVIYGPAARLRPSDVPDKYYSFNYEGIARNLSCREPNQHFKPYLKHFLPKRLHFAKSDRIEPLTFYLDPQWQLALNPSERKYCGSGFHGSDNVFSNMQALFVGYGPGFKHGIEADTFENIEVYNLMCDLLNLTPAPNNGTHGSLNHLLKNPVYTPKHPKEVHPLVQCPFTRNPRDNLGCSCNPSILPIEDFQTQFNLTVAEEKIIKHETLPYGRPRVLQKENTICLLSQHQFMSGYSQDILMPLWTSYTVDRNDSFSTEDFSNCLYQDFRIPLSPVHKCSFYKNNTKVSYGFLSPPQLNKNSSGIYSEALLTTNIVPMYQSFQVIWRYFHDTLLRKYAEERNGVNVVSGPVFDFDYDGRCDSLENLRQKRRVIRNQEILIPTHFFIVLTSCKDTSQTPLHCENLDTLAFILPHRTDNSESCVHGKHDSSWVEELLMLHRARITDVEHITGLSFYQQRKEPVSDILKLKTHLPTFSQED

[3] = biological target: T3, Ectonucleoside triphosphate diphosphohydrolase 8 (Homo sapiens, UniProt Q5MY95); assay: Inhibition of human NTPDase8 expressed in African green monkey COS7 cell membrane fraction using ATP as substrate preincubated for 10 mins followed by substrate addition measured after 10 mins by malachite green reagent-based assay
T3 sequence (Q5MY95 whole entry): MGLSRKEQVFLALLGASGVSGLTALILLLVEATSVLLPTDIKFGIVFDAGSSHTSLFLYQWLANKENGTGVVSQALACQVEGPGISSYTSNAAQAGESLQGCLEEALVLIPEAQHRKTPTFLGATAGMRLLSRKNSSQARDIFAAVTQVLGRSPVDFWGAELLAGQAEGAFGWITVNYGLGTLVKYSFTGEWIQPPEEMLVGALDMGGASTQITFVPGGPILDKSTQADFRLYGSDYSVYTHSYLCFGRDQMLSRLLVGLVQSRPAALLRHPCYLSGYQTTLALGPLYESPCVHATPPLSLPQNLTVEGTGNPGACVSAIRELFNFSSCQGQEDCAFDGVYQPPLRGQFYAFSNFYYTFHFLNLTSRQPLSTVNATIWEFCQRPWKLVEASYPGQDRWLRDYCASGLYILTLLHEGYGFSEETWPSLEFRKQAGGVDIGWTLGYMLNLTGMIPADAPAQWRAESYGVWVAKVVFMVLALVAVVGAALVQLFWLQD

[4] = biological target: T4, Ectonucleoside triphosphate diphosphohydrolase 1 (Homo sapiens, UniProt P49961); assay: Inhibition of human NTPDase1 expressed in African green monkey COS7 cell membrane fraction using ATP as substrate preincubated for 10 mins followed by substrate addition measured after 10 mins by malachite green reagent-based assay
T4 sequence (P49961 whole entry): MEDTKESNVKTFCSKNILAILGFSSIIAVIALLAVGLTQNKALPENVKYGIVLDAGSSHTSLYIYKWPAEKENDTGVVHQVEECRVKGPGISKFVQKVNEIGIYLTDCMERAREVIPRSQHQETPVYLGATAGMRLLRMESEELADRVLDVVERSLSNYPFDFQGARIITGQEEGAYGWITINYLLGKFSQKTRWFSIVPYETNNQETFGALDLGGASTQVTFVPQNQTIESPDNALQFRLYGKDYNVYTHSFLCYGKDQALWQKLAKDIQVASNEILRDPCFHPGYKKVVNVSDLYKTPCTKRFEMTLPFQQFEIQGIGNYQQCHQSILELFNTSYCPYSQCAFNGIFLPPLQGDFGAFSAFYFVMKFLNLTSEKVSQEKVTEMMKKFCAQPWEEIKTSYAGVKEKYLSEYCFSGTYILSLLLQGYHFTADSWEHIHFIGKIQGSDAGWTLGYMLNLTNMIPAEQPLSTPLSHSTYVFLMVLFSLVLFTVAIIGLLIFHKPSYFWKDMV

[5] = biological target: T5, Ectonucleoside triphosphate diphosphohydrolase 2 (Homo sapiens, UniProt Q9Y5L3); assay: Inhibition of human NTPDase2 expressed in African green monkey COS7 cell membrane fraction using ATP as substrate preincubated for 10 mins followed by substrate addition measured after 10 mins by malachite green reagent-based assay
T5 sequence (Q9Y5L3 whole entry): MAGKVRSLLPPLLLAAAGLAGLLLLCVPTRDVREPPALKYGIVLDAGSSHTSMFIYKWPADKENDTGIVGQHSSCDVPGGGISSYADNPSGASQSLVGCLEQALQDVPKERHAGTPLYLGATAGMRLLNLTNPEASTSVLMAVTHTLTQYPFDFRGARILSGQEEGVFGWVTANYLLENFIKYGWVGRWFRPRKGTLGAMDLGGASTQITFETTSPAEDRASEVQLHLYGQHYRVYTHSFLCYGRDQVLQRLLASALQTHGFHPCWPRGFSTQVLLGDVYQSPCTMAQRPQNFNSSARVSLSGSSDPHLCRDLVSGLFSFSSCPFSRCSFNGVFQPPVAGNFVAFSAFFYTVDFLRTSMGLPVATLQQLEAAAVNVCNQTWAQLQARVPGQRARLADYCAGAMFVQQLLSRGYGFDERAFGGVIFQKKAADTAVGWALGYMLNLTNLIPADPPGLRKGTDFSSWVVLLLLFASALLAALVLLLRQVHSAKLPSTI

[6] = biological target: T6, Ectonucleoside triphosphate diphosphohydrolase 3 (Homo sapiens, UniProt O75355); assay: Inhibition of human NTPDase3 expressed in African green monkey COS7 cell membrane fraction using ATP as substrate preincubated for 10 mins followed by substrate addition measured after 10 mins by malachite green reagent-based assay
T6 sequence (O75355 whole entry): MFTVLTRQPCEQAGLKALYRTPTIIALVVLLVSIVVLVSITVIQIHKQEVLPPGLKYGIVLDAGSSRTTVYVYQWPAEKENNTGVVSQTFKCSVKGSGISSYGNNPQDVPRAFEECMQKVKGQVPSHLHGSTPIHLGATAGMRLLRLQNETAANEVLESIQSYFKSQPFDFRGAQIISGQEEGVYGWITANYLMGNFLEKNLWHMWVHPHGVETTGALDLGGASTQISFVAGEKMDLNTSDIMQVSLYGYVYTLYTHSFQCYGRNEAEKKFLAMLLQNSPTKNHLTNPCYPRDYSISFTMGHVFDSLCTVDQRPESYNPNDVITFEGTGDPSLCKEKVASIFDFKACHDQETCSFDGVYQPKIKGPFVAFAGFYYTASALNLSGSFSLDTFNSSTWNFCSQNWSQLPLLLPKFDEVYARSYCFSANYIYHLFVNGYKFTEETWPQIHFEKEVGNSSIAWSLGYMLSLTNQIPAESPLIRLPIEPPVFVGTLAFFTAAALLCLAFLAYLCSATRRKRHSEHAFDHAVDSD

SMILES | IC50 [1] [µM] | IC50 [2] [µM] | IC50 [3] [µM] | IC50 [4] [µM] | IC50 [5] [µM] | IC50 [6] [µM]
COc1ccc(OC)c(-c2cccc3c(Cl)c(Br)c(C(F)(F)F)nc23)c1 | 0.36 | 0.25 | – | – | – | –
Fc1ccc(-c2c(C(F)(F)F)nc3c(-c4ccc(F)cc4)cccc3c2-c2ccc(F)cc2)cc1 | > 100 | 0.51 | – | – | – | –
N#Cc1cccc(-c2cccc3c(Cl)c(Br)c(C(F)(F)F)nc23)c1 | > 100 | 0.35 | – | – | – | –
FC(F)(F)c1nc2c(-c3ccsc3)cccc2c(Cl)c1Br | > 100 | 5.76 | > 300 | > 300 | > 300 | > 300
FC(F)(F)c1ccc(-c2cccc3c(Cl)c(Br)c(C(F)(F)F)nc23)cc1 | > 100 | 0.31 | – | – | – | –
COc1ccc(-c2cccc3c(Cl)c(Br)c(C(F)(F)F)nc23)cc1 | 1.14 | 0.39 | – | – | – | –
Cc1ccc(-c2c(C(F)(F)F)nc3c(-c4ccc(C)cc4)cccc3c2-c2ccc(C)cc2)cc1 | > 100 | 0.73 | – | – | – | –
COc1ccc(-c2c(C(F)(F)F)nc3c(-c4ccc(OC)cc4)cccc3c2-c2ccc(OC)cc2)cc1 | > 100 | 9.87 | > 300 | > 300 | > 300 | > 300

Next, values leading:

IC50 [1] [µM] | IC50 [2] [µM] | IC50 [3] [µM] | IC50 [4] [µM] | IC50 [5] [µM] | IC50 [6] [µM] | SMILES
0.39 | 7.65 | – | – | – | – | FC(F)(F)c1nc2c(Br)cccc2c(Cl)c1Br
> 100 | 20.7 | > 300 | > 300 | > 300 | > 300 | Cc1cccc(-c2c(C(F)(F)F)nc3c(-c4cccc(C)c4)cccc3c2-c2cccc(C)c2)c1
> 100 | 2.81 | > 300 | > 300 | > 300 | > 300 | FC(F)(F)c1nc2c(-c3ccccc3)cccc2c(Cl)c1-c1ccccc1
> 100 | 0.18 | – | – | – | – | FC(F)(F)c1nc2c(-c3ccccc3)cccc2c(-c2ccccc2)c1-c1ccccc1
2.42 | 0.63 | – | – | – | – | O=c1c(Br)c(C(F)(F)F)[nH]c2c(Br)cccc12
– | – | > 100 | – | – | – | Cc1ccc(C(=O)Nc2ccc(S(=O)(=O)O)c3cc(S(=O)(=O)O)cc(S(=O)(=O)O)c23)cc1NC(=O)c1cccc(NC(=O)Nc2cccc(C(=O)Nc3cc(C(=O)Nc4ccc(S(=O)(=O)O)c5cc(S(=O)(=O)O)cc(S(=O)(=O)O)c45)ccc3C)c2)c1 [SURAMIN]
